This assay addresses Ubiquitin carboxyl-terminal hydrolase 7 (Homo sapiens, UniProt Q93009). In words: Biochemical Assay: Dilution plates were prepared at 21 times the final concentration (2100 μM for a final concentration of 100 μM) in 50% DMSO in a 96-well polypropylene V-bottom plate (Greiner #651201). A typical 8-point dilution series would be 100, 30, 10, 3, 1, 0.3, 0.1, 0.03 μM final. Reactions were performed in duplicate in black 384 well plates (small volume, Greiner 784076) in a final reaction volume of 21 μl. Either 1 μl of 50% DMSO or diluted compound was added to the plate. USP7 was diluted in reaction buffer (20 mM Tris, pH 7.5, 100 mM NaCl, 0.05% Tween 20, 0.5 mg/ml BSA, 5 mM—beta mercaptoethanol) to the equivalent of 0.0025 μl/well and 10 μl of diluted USP7 was added to the compound. Enzyme and compound were incubated for 30 min at room temp. Reactions were initiated by the addition of 50 nM of TAMRA labelled peptide linked to ubiquitin via an iso-peptide bond as fluorescence polarisation substrate. Reactions were read immediately after addition of substrate and following a 2 hr incubation at room temperature. Readings were performed on a Pherastar Plus (BMG Labtech). λ Excitation 540 nm; λ Emission 590 nm. (Polarisation of emitted light reports the rotation of a fluorescent probe.)

What is called IC50 is the midpoint of a concentration-inhibition curve.

Molecules are shown by their SMILES.

Chain of Ubiquitin carboxyl-terminal hydrolase 7 (Q93009 whole entry): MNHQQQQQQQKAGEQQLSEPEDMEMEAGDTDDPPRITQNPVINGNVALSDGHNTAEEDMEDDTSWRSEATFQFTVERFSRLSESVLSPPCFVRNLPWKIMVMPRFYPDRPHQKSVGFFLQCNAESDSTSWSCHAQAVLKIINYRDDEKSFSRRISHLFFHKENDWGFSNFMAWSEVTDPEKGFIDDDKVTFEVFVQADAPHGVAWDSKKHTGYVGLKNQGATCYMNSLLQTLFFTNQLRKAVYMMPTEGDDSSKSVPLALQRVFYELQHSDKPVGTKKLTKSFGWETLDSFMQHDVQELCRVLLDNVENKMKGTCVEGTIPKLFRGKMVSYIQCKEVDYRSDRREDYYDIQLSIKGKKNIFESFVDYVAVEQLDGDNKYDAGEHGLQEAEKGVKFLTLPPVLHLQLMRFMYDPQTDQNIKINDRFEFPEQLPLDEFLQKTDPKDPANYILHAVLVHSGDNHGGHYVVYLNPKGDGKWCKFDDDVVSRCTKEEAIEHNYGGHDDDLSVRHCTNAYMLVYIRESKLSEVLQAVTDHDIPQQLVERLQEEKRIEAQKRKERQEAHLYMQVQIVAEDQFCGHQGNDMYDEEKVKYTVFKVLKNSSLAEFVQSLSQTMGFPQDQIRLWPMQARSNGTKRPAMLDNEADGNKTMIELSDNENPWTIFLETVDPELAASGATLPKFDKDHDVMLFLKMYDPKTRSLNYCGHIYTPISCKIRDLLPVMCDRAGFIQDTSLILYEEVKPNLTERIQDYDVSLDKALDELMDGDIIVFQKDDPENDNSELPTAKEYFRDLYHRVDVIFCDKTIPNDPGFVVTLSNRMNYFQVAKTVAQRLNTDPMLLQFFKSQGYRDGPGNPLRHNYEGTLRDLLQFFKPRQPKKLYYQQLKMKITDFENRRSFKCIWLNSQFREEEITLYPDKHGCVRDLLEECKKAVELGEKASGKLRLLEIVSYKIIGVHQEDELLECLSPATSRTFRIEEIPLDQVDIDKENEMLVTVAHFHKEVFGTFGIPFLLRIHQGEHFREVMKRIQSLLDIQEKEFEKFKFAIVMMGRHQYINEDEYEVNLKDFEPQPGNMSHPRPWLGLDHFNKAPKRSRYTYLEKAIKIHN

For `N#CN1Cc2[nH]nc(-c3cccc(N4CCOC4=O)c3)c2C1`, the IC50 is below 10 µM.
Next, `N#CN1Cc2[nH]nc(-c3cccc(N4CCCC4=O)c3)c2C1`: below 10 µM.

(Values after ChEMBL document CHEMBL5729069, “4,6 dihydropyrrolo [3,4-C] pyrazole-5 (1H)-carbonitrile derivates for treating cancer” (2022).)
